Assay results reported in patent US20120121656A1, “METHODS AND COMPOSITIONS FOR PROTECTING AGAINST NEUROTOXICITY OF A NEUROTOXIC AGENT, AND IMPROVING MOTOR COORDINATION ASSOCIATED WITH A NEURODEGENERATIVE CONDITION OR DISEASE” (Revalesio Corporation, priority 2010, published 2012).

Columns and labels:
MMP-2 = molecular target: T1, MMP-2 (Homo sapiens, UniProt P08253); settings: cited from earlier work
T1 sequence (P08253 110-660): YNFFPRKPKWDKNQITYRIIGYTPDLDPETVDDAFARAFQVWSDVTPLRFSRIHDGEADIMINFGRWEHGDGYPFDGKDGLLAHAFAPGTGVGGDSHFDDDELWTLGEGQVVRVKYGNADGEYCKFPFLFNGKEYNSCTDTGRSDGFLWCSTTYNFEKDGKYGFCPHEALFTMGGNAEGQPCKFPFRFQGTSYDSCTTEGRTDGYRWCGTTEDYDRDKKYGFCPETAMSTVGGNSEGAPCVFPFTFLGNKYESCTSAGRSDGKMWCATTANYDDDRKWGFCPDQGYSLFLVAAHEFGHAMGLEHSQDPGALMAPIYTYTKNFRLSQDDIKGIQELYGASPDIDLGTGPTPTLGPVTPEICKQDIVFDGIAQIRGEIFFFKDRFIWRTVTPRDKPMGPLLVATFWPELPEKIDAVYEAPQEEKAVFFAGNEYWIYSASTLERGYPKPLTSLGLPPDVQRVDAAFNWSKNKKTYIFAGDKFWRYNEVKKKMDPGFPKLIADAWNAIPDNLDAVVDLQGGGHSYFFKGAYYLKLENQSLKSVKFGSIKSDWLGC

MMP-9 = MMP-9 (Homo sapiens, UniProt P14780); settings: cited from earlier work
Chain of MMP-9 (P14780 94-707, species assumed): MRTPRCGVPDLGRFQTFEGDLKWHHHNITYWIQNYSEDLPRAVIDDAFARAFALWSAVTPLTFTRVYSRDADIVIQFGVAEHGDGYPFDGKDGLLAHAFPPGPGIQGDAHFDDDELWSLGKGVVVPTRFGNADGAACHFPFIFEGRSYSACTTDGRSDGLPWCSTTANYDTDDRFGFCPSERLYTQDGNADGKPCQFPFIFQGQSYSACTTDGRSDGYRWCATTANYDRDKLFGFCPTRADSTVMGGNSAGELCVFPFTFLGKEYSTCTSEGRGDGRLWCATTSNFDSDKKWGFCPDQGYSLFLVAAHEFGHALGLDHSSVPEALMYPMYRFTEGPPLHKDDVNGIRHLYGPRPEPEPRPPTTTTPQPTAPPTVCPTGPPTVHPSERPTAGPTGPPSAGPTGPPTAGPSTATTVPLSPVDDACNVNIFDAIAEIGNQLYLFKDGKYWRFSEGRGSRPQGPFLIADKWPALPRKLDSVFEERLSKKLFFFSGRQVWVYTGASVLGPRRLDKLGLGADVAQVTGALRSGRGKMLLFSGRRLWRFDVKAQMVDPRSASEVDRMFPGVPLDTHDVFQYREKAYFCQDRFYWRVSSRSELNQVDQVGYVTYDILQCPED

[1] = Body weight of rats in the MBP EAE model; assay type: in vivo, Lewis rats; settings: Group 2F, 1 mg/kg IP once daily from study day 0
Source text: (§1) Body Weights. Body weight loss can be the first sign of disease initiation, while a sudden marked weight gain tends to accompany remission of EAE symptoms. Therefore, determination of individual body weights of animals was made shortly before EAE induction on study day 0 (study commencement) and thereafter on a daily basis throughout the entire 21-day observation period.
as §1, with “This working EXAMPLE discloses the weight change of rats subjected to the experiment described in Example 7.” for “Body Weights.”, “and” for “and thereafter”, “the” for “the entire”

MS = settings: in vivo; cited from earlier work
primary progressive MS = settings: 943 patients with primary progressive MS (Wolinsky et al. 2007); cited from earlier work

Row | Compound | binding and inhibition of MMP-2 (MMP-2) | binding and inhibition of MMP-9 (MMP-9) | other results
1 | O=S(=O)(CCCC(S)CS)c1ccc(Oc2ccccc2)cc1 (centres unmarked) [compound 2, 5-(4-phenoxyphenylsulfonyl)pentane-1,2-dithiol] | bind selectively and inhibit potently | bind selectively and inhibit potently | –
2 | C[C@@H]1C[C@H]2[C@@H]3CCC4=CC(=O)C=C[C@]4(C)[C@@]3(F)[C@@H](O)C[C@]2(C)[C@@]1(O)C(=O)CO [Dexamethasone] | – | – | mean body weight loss during the study [1]: 10%; mean body weight lost at study termination [1]: 2%
3 | O=S(=O)(CCC(S)CS)c1ccc(Oc2ccccc2)cc1 (centres unmarked) [compound 1, 4-(4-phenoxyphenylsulfonyl)butane-1,2-dithiol] | bind selectively and inhibit potently | bind selectively and inhibit potently | –
4 | interferon-β | – | – | effectiveness in reducing the rate of MS episodes (MS): 18-38%
5 | glatiramer acetate | – | – | progression of disability and the disease (primary progressive MS): failed to halt the progression of disability and the disease
